Source: patent publication EP4778531A1, “MUSCLE RELAXANT ANTAGONIST FOR REVERSAL FOR BENZYLISOQUINOLINE MUSCLE RELAXANT” (priority 2023, dated 2025)

Columns and labels:
[1] = tested on: cisatracurium-induced guinea pig muscle relaxation model; assay: Arterial blood pressure and heart rate in the cisatracurium muscle relaxation model; format: in vivo, Hartley guinea pigs
Description: Ninety (90) qualified Hartley guinea pigs, male, were used. Sixty (60) animals were randomly divided into 6 experimental groups based on body weight using a stratified random method: negative control group, positive control group, low-dose test group, medium-dose test group, high-dose test group, and combination group, with 10 animals per group (n=10). The remaining animals served as spares. The negative control group received 0.9% sodium chloride. The positive control group received 0.0625 mg/kg neostigmine methylsulfate (referred to as neostigmine). The low-dose test group received 10 mg/kg adamgammadex sodium. The medium-dose test group received 20 mg/kg adamgammadex sodium. The high-dose test group received 40 mg/kg adamgammadex sodium. The combination group received 10 mg/kg adamgammadex sodium and 0.03125 mg/kg neostigmine. The administration volume for all groups was 1 mL/kg.
Adaptive feeding was conducted after the quarantine period. On the day of the experiment, guinea pigs were weighed, administered atropine (0.1 mg/kg) intramuscularly, and then anesthetized with an intraperitoneal injection of anesthetic (pentobarbital sodium 10 mg/kg, urethane 1000 mg/kg). After fixation, the animals were intubated and connected to a small animal ventilator. Both external jugular veins and the right carotid artery were cannulated. The left jugular vein was used for cisatracurium infusion, the right jugular vein for injection of different test substances, and the carotid artery was connected to a multi-channel physiological signal acquisition and processing system for continuous monitoring of arterial blood pressure and heart rate. Electrode patches were subcutaneously placed behind the left femur and tibia of the guinea pig, and two stimulating electrodes of the neuromuscular monitor were fixed to the two electrode patches. The left hind paw was fixed on a custom-made platform. A sensor was fixed to the skin surface over the gastrocnemius muscle of the left hind limb, and a skin temperature probe was fixed to a flat area of skin. Continuous single-twitch stimulation was applied at 1 Hz. After the twitch height stabilized, the mode was switched to train-of-four stimulation (TOF mode, stimulus current 5 mA, frequency 2 Hz, pulse width 0.2 ms, interval between trains 15 s) for at least 5 min. Calibration was then performed using Calibration Mode 2, followed by TOF mode stimulation. After obtaining a stable stimulation response for at least 2 min, cisatracurium solution was infused intravenously using a dual-channel micro-infusion pump, and the start time of infusion was recorded. […] At this point, cisatracurium infusion was stopped. After stopping the infusion, neuromuscular function was allowed to recover spontaneously. When neuromuscular function reached moderate recovery, the test drug formulation was administered intravenously. Neuromuscular function was allowed to recover completely, and the administration time was recorded (Figure 1). Using the time of spontaneous recovery to moderate neuromuscular function (TOF50) as zero point, the times for recovery from TOF50 to TOF75, TOF75 to TOF90, and TOF50 to TOF90 were calculated for each animal (Table 1-2). Arterial blood pressure (systolic, diastolic, mean arterial pressure) and heart rate were recorded before cisatracurium infusion, at the time cisatracurium infusion was stopped, at the time of moderate neuromuscular recovery, and at the time of complete neuromuscular function recovery (Tables 3-7). Data were expressed as Mean ± SD. Statistical T-tests were performed using SPSS software to evaluate differences in blood pressure, heart rate, and residual neuromuscular blockade recovery times. P < 0.05 was considered statistically significant.

[2] = tested on: Wild-type AB strain zebrafish; assay: Evaluation of compound-induced sensitization risk in zebrafish (tryptase OD, BAPNA); format: in vivo; details: 500 ng/tail
Description: Wild-type AB strain zebrafish at 2 days post-fertilization (2 dpf) were randomly selected and placed in 24-well plates. Each group was with 6 replicate wells per group and 10 zebrafish per well. The following groups were set up: (1) Normal control group; (2) Positive control group (the used drug was mast cell sensitizer C48/80 at 1.5 µg/mL concentration); (3) Compound 1 (adamgammadex sodium) experimental group; (4) Compound 2 experimental group; (5) Compound 3 experimental group; (6) Compound 4 experimental group; (7) Compound 5 experimental group; (8) Compound 6 experimental group; (9) Compound 7 (sugammadex sodium) experimental group. In the experimental groups, Compound 1 was adamgammadex sodium, Compounds 2-6 were adamgammadex sodium analogues, and Compound 7 was sugammadex sodium. The volume of each well was 1 mL, and all experimental groups were treated with BAPNA (a specific detection reagent for mast cell degranulation) dissolved in water. Table 1: Structural Formulas of Compounds 1-7
After 1 day of treatment at 28°C, the liquid was transferred to a 96-well plate, with 200 µL/well. The relative absorbance (OD value) of tryptase expression levels in each experimental group was measured using a microplate reader. The OD value statistical analysis results were used to evaluate the sensitization risk of the samples. Statistical analysis was performed using SPSS software, with p < 0.05 indicating a significant difference. Sensitization risk (%) = (OD(Samplegroup)−OD(NormalControlgroup))/(OD (NormalControlgroup)) × 100% [formula]

[3] = positive control group, 0.0625 mg/kg i.v.
[4] = high-dose test group, 40 mg/kg i.v.
[5] = low-dose test group, 10 mg/kg i.v.
[6] = medium-dose test group, 20 mg/kg i.v.

`CN(C)C(=O)Oc1cccc([N+](C)(C)C)c1` [Neostigmine, neostigmine methylsulfate] was tested, and the “effect on heart rate (in words)” value ([1]; 0.0625 mg/kg) was “significant side effect of lowering heart rate”, the heart rate decrease ([1]; 0.0625 mg/kg neostigmine, positive control group, summary statement) was “approximately 30%” and the “Heart rate Administration” value [1, 3] was 238+42 bmp. The “Heart rate Complete Recovery” value [1, 3] was 157±49 bmp, the “Heart rate Moderate Recovery” value [1, 3] was 181±54 bmp and the “Heart rate Muscle Relaxation End” value [1, 3] was 239+11 bmp. The “Heart rate Muscle Relaxation Start” value [1, 3] was 240+14 bmp, the “Mean Arterial Pressure mAP Administration” value [1, 3] was 68+12 mmHg and the “Mean Arterial Pressure mAP Complete Recovery” value [1, 3] was 67+15 mmHg. The “Mean Arterial Pressure mAP Moderate Recovery” value [1, 3] was 69+12 mmHg, the “Mean Arterial Pressure mAP Muscle Relaxation End” value [1, 3] was 63+8 mmHg and the “Mean Arterial Pressure mAP Muscle Relaxation Start” value [1, 3] was 62+11 mmHg. The “Mean Diastolic Pressure mDP Administration” value [1, 3] was 60+10 mmHg, the “Mean Diastolic Pressure mDP Complete Recovery” value [1, 3] was 58+15 mmHg and the “Mean Diastolic Pressure mDP Moderate Recovery” value [1, 3] was 61+12 mmHg. The “Mean Diastolic Pressure mDP Muscle Relaxation End” value [1, 3] was 57+6 mmHg, the “Mean Diastolic Pressure mDP Muscle Relaxation Start” value [1, 3] was 56±9 mmHg and the “Mean Pulse Pressure Administration” value [1, 3] was 17±8 mmHg. For the same compound, the “Mean Pulse Pressure Complete Recovery” value [1, 3] was 19+6 mmHg, the “Mean Pulse Pressure Moderate Recovery” value [1, 3] was 19±8 mmHg and the “Mean Pulse Pressure Muscle Relaxation End” value [1, 3] was 14±5 mmHg. For the same compound, the “Mean Pulse Pressure Muscle Relaxation Start” value [1, 3] was 15+4 mmHg, the “Mean Systolic Pressure mSP Administration” value [1, 3] was 76±15 mmHg and the “Mean Systolic Pressure mSP Complete Recovery” value [1, 3] was 78±13 mmHg. The “Mean Systolic Pressure mSP Moderate Recovery” value [1, 3] was 79±13 mmHg, the “Mean Systolic Pressure mSP Muscle Relaxation End” value [1, 3] was 71±10 mmHg and the “Mean Systolic Pressure mSP Muscle Relaxation Start” value [1, 3] was 71±12 mmHg. The “Degree of heart rate decrease at complete muscle relaxation recovery” value ([1]; positive control group, 0.0625 mg/kg i.v., vs heart rate at start of muscle relaxation) was 35%.

In the case of Adamgammadex sodium [Compound 1], the “OD value (mean ± SE)” value ([2]; 1 day at 28°C, relative absorbance of tryptase expression levels) is reported as 0.060 ± 0.001, the “Sensitization risk (%)” value ([2]; 1 day at 28°C, vs normal control OD) is reported as 11% and the “sensitization risk (in words)” value ([2]; conclusion from OD value) is reported as “almost no sensitization risk”. For the same compound, the “effect on animal blood pressure or heart rate (in words)” value ([1]; 10, 20, and 40 mg/kg) was “no effect on animal blood pressure or heart rate”, the “Heart rate Administration” value [1, 4] was 258+18 bmp and the “Heart rate Complete Recovery” value [1, 4] was 258+16 bmp. For the same compound, the “Heart rate Moderate Recovery” value [1, 4] was 257+18 bmp, the “Heart rate Muscle Relaxation End” value [1, 4] was 249±21 bmp and the “Heart rate Muscle Relaxation Start” value [1, 4] was 243+27 bmp. For the same compound, the “Mean Arterial Pressure mAP Administration” value [1, 4] was 70±8 mmHg, the “Mean Arterial Pressure mAP Complete Recovery” value [1, 4] was 73+10 mmHg and the “Mean Arterial Pressure mAP Moderate Recovery” value [1, 4] was 72+8 mmHg. The “Mean Arterial Pressure mAP Muscle Relaxation End” value [1, 4] was 65+10 mmHg, the “Mean Arterial Pressure mAP Muscle Relaxation Start” value [1, 4] was 64+12 mmHg and the “Mean Diastolic Pressure mDP Administration” value [1, 4] was 60+7 mmHg. The “Mean Diastolic Pressure mDP Complete Recovery” value [1, 4] was 63±9 mmHg, the “Mean Diastolic Pressure mDP Moderate Recovery” value [1, 4] was 62±8 mmHg and the “Mean Diastolic Pressure mDP Muscle Relaxation End” value [1, 4] was 56+9 mmHg. The “Mean Diastolic Pressure mDP Muscle Relaxation Start” value [1, 4] was 56+12 mmHg, the “Mean Pulse Pressure Administration” value [1, 4] was 21±5 mmHg and the “Mean Pulse Pressure Complete Recovery” value [1, 4] was 21+5 mmHg. For the same compound, the “Mean Pulse Pressure Moderate Recovery” value [1, 4] was 21+4 mmHg, the “Mean Pulse Pressure Muscle Relaxation End” value [1, 4] was 19±5 mmHg and the “Mean Pulse Pressure Muscle Relaxation Start” value [1, 4] was 18+4 mmHg. For the same compound, the “Mean Systolic Pressure mSP Administration” value [1, 4] was 81±10 mmHg, the “Mean Systolic Pressure mSP Complete Recovery” value [1, 4] was 84±11 mmHg and the “Mean Systolic Pressure mSP Moderate Recovery” value [1, 4] was 83±9 mmHg. The “Mean Systolic Pressure mSP Muscle Relaxation End” value [1, 4] was 75±11 mmHg, the “Mean Systolic Pressure mSP Muscle Relaxation Start” value [1, 4] was 74±12 mmHg and the “Heart rate Administration” value [1, 5] was 269+20 bmp. For the same compound, the “Heart rate Complete Recovery” value [1, 5] was 270+18 bmp, the “Heart rate Moderate Recovery” value [1, 5] was 268+20 bmp and the “Heart rate Muscle Relaxation End” value [1, 5] was 261+20 bmp. For the same compound, the “Heart rate Muscle Relaxation Start” value [1, 5] was 259+30 bmp, the “Mean Arterial Pressure mAP Administration” value [1, 5] was 75+15 mmHg and the “Mean Arterial Pressure mAP Complete Recovery” value [1, 5] was 76+13 mmHg. For the same compound, the “Mean Arterial Pressure mAP Moderate Recovery” value [1, 5] was 74+10 mmHg, the “Mean Arterial Pressure mAP Muscle Relaxation End” value [1, 5] was 70+11 mmHg and the “Mean Arterial Pressure mAP Muscle Relaxation Start” value [1, 5] was 70±16 mmHg. For the same compound, the “Mean Diastolic Pressure mDP Administration” value [1, 5] was 67+13 mmHg, the “Mean Diastolic Pressure mDP Complete Recovery” value [1, 5] was 68+11 mmHg and the “Mean Diastolic Pressure mDP Moderate Recovery” value [1, 5] was 65+8 mmHg. For the same compound, the “Mean Diastolic Pressure mDP Muscle Relaxation End” value [1, 5] was 62+9 mmHg, the “Mean Diastolic Pressure mDP Muscle Relaxation Start” value [1, 5] was 61+14 mmHg and the “Mean Pulse Pressure Administration” value [1, 5] was 19+6 mmHg. For the same compound, the “Mean Pulse Pressure Complete Recovery” value [1, 5] was 18+6 mmHg, the “Mean Pulse Pressure Moderate Recovery” value [1, 5] was 18±5 mmHg and the “Mean Pulse Pressure Muscle Relaxation End” value [1, 5] was 17+4 mmHg. The “Mean Pulse Pressure Muscle Relaxation Start” value [1, 5] was 18±5 mmHg, the “Mean Systolic Pressure mSP Administration” value [1, 5] was 85±18 mmHg and the “Mean Systolic Pressure mSP Complete Recovery” value [1, 5] was 86±16 mmHg. The “Mean Systolic Pressure mSP Moderate Recovery” value [1, 5] was 83±12 mmHg, the “Mean Systolic Pressure mSP Muscle Relaxation End” value [1, 5] was 79±12 mmHg and the “Mean Systolic Pressure mSP Muscle Relaxation Start” value [1, 5] was 79±18 mmHg. The “Heart rate Administration” value [1, 6] was 259+38 bmp, the “Heart rate Complete Recovery” value [1, 6] was 263+36 bmp and the “Heart rate Moderate Recovery” value [1, 6] was 261+35 bmp. For the same compound, the “Heart rate Muscle Relaxation End” value [1, 6] was 247+42 bmp, the “Heart rate Muscle Relaxation Start” value [1, 6] was 242+43 bmp and the “Mean Arterial Pressure mAP Administration” value [1, 6] was 70+8 mmHg. For the same compound, the “Mean Arterial Pressure mAP Complete Recovery” value [1, 6] was 73+6 mmHg, the “Mean Arterial Pressure mAP Moderate Recovery” value [1, 6] was 74+7 mmHg and the “Mean Arterial Pressure mAP Muscle Relaxation End” value [1, 6] was 65+10 mmHg. For the same compound, the “Mean Arterial Pressure mAP Muscle Relaxation Start” value [1, 6] was 64±8 mmHg, the “Mean Diastolic Pressure mDP Administration” value [1, 6] was 61+8 mmHg and the “Mean Diastolic Pressure mDP Complete Recovery” value [1, 6] was 64+6 mmHg. For the same compound, the “Mean Diastolic Pressure mDP Moderate Recovery” value [1, 6] was 64+6 mmHg, the “Mean Diastolic Pressure mDP Muscle Relaxation End” value [1, 6] was 57+9 mmHg and the “Mean Diastolic Pressure mDP Muscle Relaxation Start” value [1, 6] was 56+8 mmHg. The “Mean Pulse Pressure Administration” value [1, 6] was 19±3 mmHg, the “Mean Pulse Pressure Complete Recovery” value [1, 6] was 20+4 mmHg and the “Mean Pulse Pressure Moderate Recovery” value [1, 6] was 20+3 mmHg. For the same compound, the “Mean Pulse Pressure Muscle Relaxation End” value [1, 6] was 18±3 mmHg, the “Mean Pulse Pressure Muscle Relaxation Start” value [1, 6] was 18±3 mmHg and the “Mean Systolic Pressure mSP Administration” value [1, 6] was 80±8 mmHg. The “Mean Systolic Pressure mSP Complete Recovery” value [1, 6] was 84±7 mmHg, the “Mean Systolic Pressure mSP Moderate Recovery” value [1, 6] was 84±7 mmHg and the “Mean Systolic Pressure mSP Muscle Relaxation End” value [1, 6] was 75±10 mmHg. For the same compound, the “Mean Systolic Pressure mSP Muscle Relaxation Start” value [1, 6] was 74±9 mmHg.
